Reference: patent US9249194B2 (priority 2009, dated 2016)

Key:
Assay type in all cases: cell-based
[1] = tested on: SH-SY5Y human neuroblastoma cells
[2] = tested on: SH-SY5Y human neuroblastoma cells; remark: listed apart in the source
[3] = tested on: SH-SY5Y human neuroblastoma cells; remark: listed apart in the source

OO [H2O2, hydrogen peroxide]
neurite retraction after hydrogen peroxide treatment [1]: neurites shorten

CCCC(=O)Nc1ncnc2c1ncn2[C@@H]1O[C@@H]2COP(=O)(O)O[C@H]2[C@H]1OC(=O)CCC [db-cAMP, dibutyril c-AMP]
elongation / length of the neurites [2]: triggers elongation of neurites

lysophosphatidic acid [LPA]
length / collapsing of neurites with increasing doses of LPA [3]: linear retraction of the length of the neurites | neurites after LPA treatment (retraction or preservation) [3]: retraction of the neurites
